# Entries after “also recorded” stand apart in the source; their conditions may differ. Non-standard residues stand in square brackets, D forms with d. Residues, ends and D or L forms follow the SMILES beside them. No end group written: not given here. Hyp = O=C(O)[C@@H]1C[C@@H](O)CN1; 2Thi = N[C@@H](Cc1cccs1)C(=O)O; Gly(N-cHex) = O=C(O)CNC1CCCCC1
# Tests used:
# human B2R [1] = biological target: T1, human B2R (Homo sapiens, UniProt P30411); test: Radioligand displacement binding assay, [3H]BK, human B2R-HEK293 cells; settings: for binding affinity at human B2R, in words: HEK293 cells stably expressing human B2R; for IC50: displacement of 1 nM [3H]BK, living adherent HEK293 cells stably expressing human B2R, serum-free DMEM, 1.5 h, 4 °C, mean of two independent experiments performed in duplicates
# T1 construct: expressed in transfected cells; host or cells: QBI HEK 293A cells, lentiviral transduction with pCDH-BDKRB2, puromycin selection
# T1 sequence (P30411 1-391): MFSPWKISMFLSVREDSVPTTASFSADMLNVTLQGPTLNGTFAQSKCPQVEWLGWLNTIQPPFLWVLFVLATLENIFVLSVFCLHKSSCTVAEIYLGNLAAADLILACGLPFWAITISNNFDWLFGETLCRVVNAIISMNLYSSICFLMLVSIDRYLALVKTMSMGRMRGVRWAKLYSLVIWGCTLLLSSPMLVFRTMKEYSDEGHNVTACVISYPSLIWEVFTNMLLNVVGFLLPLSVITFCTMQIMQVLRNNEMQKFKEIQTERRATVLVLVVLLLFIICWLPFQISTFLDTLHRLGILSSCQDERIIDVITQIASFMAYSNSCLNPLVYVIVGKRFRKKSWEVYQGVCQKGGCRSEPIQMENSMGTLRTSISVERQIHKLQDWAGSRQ
# Protocol: The pCDH-BDKRB2 vector was produced from the plasmid pcDNA3.1/human BDKRB2 by PCR amplification using the primers 5′-[…]-3′ and 5′-[…]-3′, and introduced into pCDH-CMV-MCS-EF1 vector using BamHI et XbaI restriction sites. Lentiviruses were produced from pCDH-BDKRB2 vector in HEK293T cells using the X-tremeGENE HP transfection reagent (Millipore-Sigma, Oakville, ON, Canada). Lentiviruses were harvested 48 h post-transfection and used to infect QBI HEK 293A cells (ATCC). Transduced cells were selected using 5 µg/mL of puromycin (Thermo Fisher, Burlington, On, Canada).
# Radioligand displacement binding assays were performed as we previously described, with slight modifications. HEK293 cells stably expressing human B2R were used for these assays (see text above). […] Radioactivity of samples was measured by a β-scintillation counter (PerkinElmer, Woodbridge, On, Canada). Binding affinities of peptides were expressed in terms of IC50 values—the molar concentration of an unlabeled agonist causing 50% displacement of specific binding (GraphPad Prism 8.2).
# human B2R [2] = biological target: T1, human B2R; test: IP-One accumulation assay, human B2R-HEK293 cells; assay type: cell-based; settings: for EC50: IP1 accumulation, 30 min, room temperature, pH 7.4, 50 mM LiCl, human B2R-HEK293, 15,000 cells per well, mean of two independent experiments performed in duplicates, read-out: IP1 Assays (EC50; nM)
# Protocol: The IP-One assay was performed on living, adherent human B2R-HEK293 cells according to the manufacturer’s recommendations (Cisbio, #62IPAPEB, Bedford, MA, USA). […] IP1-d2 and anti-IP1-Cryptate were added for at least 1 h. Fluorescence signal was measured using a Tecan M1000 plate reader (excitation at 320 nm and emission at 620 and 665 nm). EC50 values were calculated by curve-fitting using GraphPad Prism 8.2.
# [3] = tested on: 4T1-luc mammary cancer cells, brain metastases in mice; test: 4T1-luc breast cancer brain metastasis model; assay type: in vivo, mouse; settings: NG291 50 μg/kg over 5 min i.v., single dose, 18 days, 6–8 animals
# Protocol: Mice were anesthetized using 1.5 L/min oxygen-containing isoflurane (3% for induction, 2% for maintenance) and secured with tape in a supine position on a heating pad. A total of 1 × 10^5 4T1-Luc cells suspended in 100 µL of sterile saline was slowly injected into the left ventricle of the heart using a 1 mL Hamilton syringe mounted with a 30G needle as described previously. For BBB disruption experiments, a cannula was placed in the caudal vein and a single dose of NG291 (50 µg/kg/5 min) was infused into the caudal vein while simultaneously injecting the cancer cells intracardially. Successful intracardiac injection and tumor development was evaluated weekly by bioluminescence imaging. The development of brain metastatic tumor burden was determined by histological analysis.
# Brain sections from mice inoculated with 4T1-Luc cells were stained with hematoxylin-eosin (H and E) for histological examination and metastases quantification using the NanoZoomer Digital Pathology software (Hamamatsu, NDP.view version 2.7.25). H and E staining was performed on brain sections every 20–30 µm. The relative total area and number of metastatic foci in the entire brain section were calculated from manual delineation of metastases in digital images of H and E-stained brain slides using the NanoZoomer NDP.view2 viewing software free hand tool. […] A total of 68 slices were analyzed.
# [4] = tested on: angiotensin-converting enzyme (ACE, alias kininase II); settings: ref [26]; cited from earlier work
# normal mice = test: Tolerability / blood pressure effect in anesthetized normal mice; assay type: in vivo, mouse
# BBB / brain cancer = tested on: BBB / brain cancer; set-up: method as in PMID 22709590; settings: ref [33]; cited from earlier work
# GBM cells = settings: vs. temozolomide (TMZ); ref [33]; cited from earlier work
# [5] = tested on: BBB, irradiated mouse brain; test: DCE-MRI of BBB permeability to Gd-DTPA in irradiated mouse brain; assay type: in vivo; settings: T1-weighted, 10 months after 45 Gy; Gd-DTPA alone or with NG291 50 µg/kg i.v.
# From the text: Female Balb/c mice were anesthetized using 1.5 L/min oxygen containing isoflurane (3% for induction, 2% for maintenance) and positioned on a custom-designed stereotactic bed compatible with the Leksell Gamma Knife Perfexion (Elekta AB, Stockholm, Sweden). A maximum dose of 45 Gy (23.1 Gy at the 50% isodose) was delivered through 4 mm collimators in the right hemisphere of the brain. Mouse and human brains have different sensitivities to radiation. This dose was selected because it allows the development and slow progression of radiation necrosis (approximatively appearing at 17 months post-irradiation in T2-weighted MRI; Figure 4), similar to what may be observed in brain cancer patients who received radiotherapy. After irradiation, mice were placed on a heating pad to recover, and were then returned to their cages.
# For dynamic contrast-enhanced (DCE)-MRI imaging, pre-contrast T1-weighted imaging with an array of flip angles (α = 10°, 20°, 25°, 35°, 50°) was performed to acquire a T1 map with the following parameters: TR = 100 ms, TE = 2.79 ms, data matrix = 128 × 128, FOV = 20 × 20 mm^2; 1 average; 10 slices; 1 mm slice thickness. Then, a dynamic acquisition with the same parameters and a fixed angle at 30° was acquired before, during, and after injection of contrast agent. […]
# BBB / BTB = tested on: BBB / BTB; set-up: method as in 2 sources, one per row (each row's own in cited_ref): ref [2],[13] = [2]; PMID 15153840; doi:10.1177/107327480401100304; 2. Black K.L. Ningaraj N.S. Modulation of brain tumor capillaries for enhanced drug delivery selectively to brain tumor Cancer Control. 2004 11 165 173 10.1177/107327480401100304 15153840 || [13]; PMID 11286321; doi:10.2165/00003088-200140020-00003; 13. Emerich D.F. Dean R.L. Osborn C. Bartus R.T. The development of the bradykinin agonist labradimil as a means to increase the permeability of the blood-brain barrier: From concept to clinical evalu ||| ref [2],[46],[47] = [2]; PMID 15153840; doi:10.1177/107327480401100304; 2. Black K.L. Ningaraj N.S. Modulation of brain tumor capillaries for enhanced drug delivery selectively to brain tumor Cancer Control. 2004 11 165 173 10.1177/107327480401100304 15153840 || [46]; PMID 20146088; doi:10.1007/s11060-010-0124-x; 46. Liu L.B. Xue Y.X. Liu Y.H. Bradykinin increases the permeability of the blood-tumor barrier by the caveolae-mediated transcellular pathway J. Neurooncol. 2010 99 187 194 10.1007/s11060-010-0124-x || [47]; PMID 12023511; doi:10.1124/jpet.301.3.838; 47. Ningaraj N.S. Rao M. Hashizume K. Asotra K. Black K.L. Regulation of blood-brain tumor barrier permeability by calcium-activated potassium channels J. Pharmacol. Exp. Ther. 2002 301 838 851 10.112; settings: increased numbers of pinocytotic vesicles or caveolae; ref [2],[46],[47]; cited from earlier work
# From the text: Kinin effects are mediated through specific activation of two types of receptors, namely, the kinin B1 (B1R) and B2 receptors (B2R), both belonging to the G-protein-coupled receptor family. […] The strategy exploiting targeted stimulation of the kinin receptors could perhaps ...
# leucocytes, brain = settings: exogenous BK; ref [21],[24]; cited from earlier work
compound,measurement,setting,value
"N=C(N)NCCC[C@@H](N)C(=O)N[C@H](Cc1ccccc1)C(=O)N1CCC[C@@H]1C(=O)N[C@H](CO)C(=O)N[C@H](Cc1ccccc1)C(=O)NCC(=O)N1CCC[C@@H]1C(=O)N1CCC[C@@H]1C(=O)N[C@H](CCCNC(=N)N)C(=O)O [RI-BK, D(retroinverso)-BK] (H-[dR][dF][dP][dS][dF]G[dP][dP][dR]-OH; N-terminus and C-terminus assumed)","binding affinity at human B2R, in words",human B2R [1],no binding affinity
same,IC50,human B2R [1],> 10000 nM
same,"agonist activity/potency at human B2R, in words","human B2R [2]; IP1, HEK293 cells stably expressing human B2R",no binding affinity and agonist activity at human B2R
same,EC50,human B2R [2],> 10000 nM
"N=C(N)NCCC[C@H](NC(=O)[C@H](Cc1cccs1)NC(=O)CN(C(=O)[C@H](CO)NC(=O)[C@H](Cc1cccs1)NC(=O)CNC(=O)[C@@H]1C[C@@H](O)CN1C(=O)[C@@H]1CCCN1C(=O)[C@@H](N)CCCNC(=N)N)C1CCCCC1)C(=O)O [NG291, [Hyp^3, Thi^5, ^NChg^7, Thi^8]-BK] (H-RP[Hyp]G[2Thi]S[Gly(N-cHex)][2Thi]R-OH)",IC50,human B2R [1],3 nM
same,"effect on brain tumor burden and number of metastases, in words",[3],did not significantly increase brain tumor burden; also recorded: no difference in terms of both area and number of metastases
same,protection against enzymatic degradation by ACE,[4],fully protected against enzymatic degradation by the angiotensin-converting enzyme
same,EC50,human B2R [2],0.9 nM
same,hypotensive effect,"normal mice; high dose i.v. NG291, ketamine/xylazine-anesthetized normal mice, strong but reversible, not shown",about -35 mmHg
same,tolerability,"normal mice; high dose i.v. NG291, normal mice",generally well-tolerated
"N=C(N)NCCC[C@@H](N)C(=O)N[C@@H](CCCNC(=N)N)C(=O)N1CCC[C@H]1C(=O)N1C[C@H](O)C[C@H]1C(=O)NCC(=O)N[C@H](C(=O)N[C@@H](CO)C(=O)N1[C@H](C(=O)N[C@H](C(=O)N[C@@H](CCCNC(=N)N)C(=O)O)C2Cc3ccccc3C2)C[C@@H]2CCCC[C@@H]21)C1Cc2ccccc2C1 [B9972, DArg[Hyp^3, Igl^5, Oic^7, Igl^8]-BK]",IC50,human B2R [1],199 nM
same,EC50,human B2R [2],158 nM
"COc1cccc2c1C(=O)c1c(O)c3c(c(O)c1C2=O)C[C@@](O)(C(=O)CO)C[C@@H]3O[C@H]1C[C@H](N)[C@H](O)[C@H](C)O1 [DOX, doxorubicin]",BBB crossing and in vivo efficacy in brain cancer,BBB / brain cancer,does not readily cross the BBB and so shows poor efficacy in in vivo models
same,potency for killing GBM cells in vitro,GBM cells,more potent than temozolomide (TMZ) for killing GBM cells in vitro
CNC[C@H](O)[C@@H](O)[C@H](O)[C@H](O)CO.CNC[C@H](O)[C@@H](O)[C@H](O)[C@H](O)CO.O=C([O-])CN(CCN(CC(=O)[O-])CC(=O)O)CCN(CC(=O)[O-])CC(=O)O.[Gd+3] [Gd-DTPA],contrast enhancement in the irradiated hemisphere,[5],Minimal contrast enhancement was observed in the irradiated hemisphere
"RPPGFSPFR [BK, H-Arg^1-Pro^2-Pro^3-Gly^4-Phe^5-Ser^6-Pro^7-Phe^8-Arg^9-OH]","binding affinity at human B2R, in words",human B2R [1],higher binding affinity (IC50)
same,BTB permeability by the transcellular pathway,BBB / BTB,"may increase BTB permeability, as well by means of the transcellular pathway"
same,brain trafficking of IV-infused leucocytes,"leucocytes, brain",can increase brain trafficking of IV-infused leucocytes
